molecular target: T1, CGRP receptor (SK-N-MC cell membranes) (Homo sapiens, UniProt O60894+Q16602); experiment: CGRP Binding Assay ([125I]-CGRP radioligand binding, SK-N-MC homogenate); details: displacement of [125I]-CGRP, SK-N-MC homogenate; read-out: CGRP binding IC50
T1 construct: endogenous in cells; host or cells: SK-N-MC cells (membrane homogenate)
Experimental: Tissue Culture. SK-N-MC cells were grown at 37° C. in 5% CO2 as a monolayer in medium consisting of MEM with Earle's salts and L-glutamine (Gibco) supplemented with 10% fetal bovine serum (Gibco).
Cell Pellets. […] The cells were transferred from plates to polypropylene tubes (16×100 mm) and homogenized using a polytron. Homogenates were centrifuged at 32,000×g for 30 min. The pellets were resuspended in cold hypotonic lysis buffer with 0.1% mammalian protease inhibitor cocktail (Sigma) and assayed for protein concentration. The SK-N-MC homogenate was then aliquoted and stored at −80° C. until needed.
Radioligand Binding Assay. The compounds of invention were solubilized and carried through serial dilutions using 100% DMSO. Aliquots from the compound serial dilutions were further diluted 25 fold into assay buffer (50 mM Tris-Cl pH 7.5, 5 mM MgCl2, 0.005% Triton X-100) and transferred (volume 50 μl) into 96 well assay plates. […] SK-N-MC pellets were thawed, diluted in assay buffer with fresh 0.1% mammalian protease inhibitor cocktail (Sigma), and homogenized again. SK-N-MC homogenate (5 μg/well) was added in a volume of 100 μl. The assay plates were then incubated at room temperature for 2 h. Assays were stopped by addition of excess cold wash buffer (20 mM Tris-Cl pH 7.5, 0.1% BSA) immediately followed by filtration over glass fiber filters (Whatman GF/B) previously soaked in 0.5% PEI. Non-specific binding was defined with 1 μM beta-CGRP. Protein bound radioactivity was determined using a gamma or scintillation counter.

T1 sequence (Q16602 23-461): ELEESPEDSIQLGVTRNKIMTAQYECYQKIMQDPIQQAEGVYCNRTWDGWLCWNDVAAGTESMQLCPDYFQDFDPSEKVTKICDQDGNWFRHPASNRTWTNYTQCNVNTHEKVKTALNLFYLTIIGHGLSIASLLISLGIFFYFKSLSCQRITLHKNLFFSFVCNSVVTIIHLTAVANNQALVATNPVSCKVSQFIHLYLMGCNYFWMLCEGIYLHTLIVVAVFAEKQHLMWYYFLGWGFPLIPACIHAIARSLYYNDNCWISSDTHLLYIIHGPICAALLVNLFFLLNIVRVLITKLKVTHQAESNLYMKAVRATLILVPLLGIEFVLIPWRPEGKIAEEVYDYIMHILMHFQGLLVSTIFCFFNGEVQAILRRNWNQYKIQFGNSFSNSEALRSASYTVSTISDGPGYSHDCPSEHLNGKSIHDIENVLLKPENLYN
T1 sequence (O60894 27-148): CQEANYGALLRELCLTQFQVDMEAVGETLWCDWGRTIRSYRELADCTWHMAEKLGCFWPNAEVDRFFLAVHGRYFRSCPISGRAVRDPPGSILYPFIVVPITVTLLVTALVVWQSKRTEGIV

`O=C(NC(Cc1ccc(OCc2ccccc2)nc1)C(=O)N1CCC(N2CCCCC2)CC1)N1CCC(N2Cc3ccccc3NC2=O)CC1` (racemic) [Example 59, (±)-4-(2-Oxo-1,4-dihydro-2H-quinazolin-3-yl)-piperidine-1-carboxylic acid[1-(6-benzyloxy-pyridin-3-ylmethyl)-2-[1,4′]bipiperidinyl-1′-yl-2-oxo-ethyl]-amide] and `O=C(NC(Cc1ccc(=O)[nH]c1)C(=O)N1CCC(N2CCCCC2)CC1)N1CCC(N2Cc3ccccc3NC2=O)CC1` (racemic) [Example 60, (±)-4-(2-Oxo-1,4-dihydro-2H-quinazolin-3-yl)-piperidine-1-carboxylic acid[2-[1,4′]bipiperidinyl-1′-yl-2-oxo-1-(6-oxo-1,6-dihydro-pyridin-3-ylmethyl)-ethyl]-amide] fall in the same range of IC50: 100 to 1000 nM for the first, 100 to 1000 nM for the second.

`CC(=O)N[C@@H](CC(=O)N1CCC(N2Cc3ccccc3NC2=O)CC1)C(=O)N1CCC(N2CCCCC2)CC1` [Example 120] and `O=C(N[C@@H](CC(=O)N1CCC(N2Cc3ccccc3NC2=O)CC1)C(=O)N1CCC(N2CCCCC2)CC1)C1CC1` [Example 103] fall in the same range of IC50: 100 to 1000 nM for the first, 100 to 1000 nM for the second.

`COc1ccc(OC(=O)N[C@@H](CC(=O)N2CCC(N3Cc4ccccc4NC3=O)CC2)C(=O)N2CCC(N3CCCCC3)CC2)cc1` [Example 134] and `Cc1ccc(OC(=O)N[C@@H](CC(=O)N2CCC(N3Cc4ccccc4NC3=O)CC2)C(=O)N2CCC(N3CCCCC3)CC2)cc1` [Example 132] fall in the same range of IC50: 100 to 1000 nM for the first, 100 to 1000 nM for the second.

Compared with `O=C(Nc1ccccc1F)N[C@@H](CC(=O)N1CCC(N2Cc3ccccc3NC2=O)CC1)C(=O)N1CCC(N2CCCCC2)CC1` [Example 171], `Cc1ccccc1NC(=O)N[C@@H](CC(=O)N1CCC(N2Cc3ccccc3NC2=O)CC1)C(=O)N1CCC(N2CCCCC2)CC1` [Example 141] is higher in IC50: 10 to 100 nM for the first, 100 to 1000 nM for the second. The first is the more potent here.

Compared with `O=C(Nc1cccc(Cl)c1Cl)N[C@@H](CC(=O)N1CCC(N2Cc3ccccc3NC2=O)CC1)C(=O)N1CCC(N2CCCCC2)CC1` [Example 148], `O=C(Nc1cc(Cl)ccc1Cl)N[C@@H](CC(=O)N1CCC(N2Cc3ccccc3NC2=O)CC1)C(=O)N1CCC(N2CCCCC2)CC1` [Example 173] is higher in IC50: 10 to 100 nM for the first, 100 to 1000 nM for the second. The first is the more potent here.

`O=C(Nc1ccc(F)cc1F)N[C@@H](CC(=O)N1CCC(N2Cc3ccccc3NC2=O)CC1)C(=O)N1CCC(N2CCCCC2)CC1` [Example 156] and `Cc1ccc(F)cc1NC(=O)N[C@@H](CC(=O)N1CCC(N2Cc3ccccc3NC2=O)CC1)C(=O)N1CCC(N2CCCCC2)CC1` [Example 195] fall in the same range of IC50: 100 to 1000 nM for the first, 100 to 1000 nM for the second.

`O=C(N[C@@H](CC(=O)N1CCC(N2Cc3ccccc3NC2=O)CC1)C(=O)N1CCC(N2CCCCC2)CC1)c1ccc(F)c(F)c1` [Example 102] and `O=C(Nc1c(F)cccc1F)N[C@@H](CC(=O)N1CCC(N2Cc3ccccc3NC2=O)CC1)C(=O)N1CCC(N2CCCCC2)CC1` [Example 163] fall in the same range of IC50: 100 to 1000 nM for the first, 100 to 1000 nM for the second.

`O=C(N[C@@H](CC(=O)N1CCC(N2Cc3ccccc3NC2=O)CC1)C(=O)N1CCC(N2CCCCC2)CC1)c1cc(C(F)(F)F)cc(C(F)(F)F)c1` [Example 107] and `COc1cc(C(=O)N[C@@H](CC(=O)N2CCC(N3Cc4ccccc4NC3=O)CC2)C(=O)N2CCC(N3CCCCC3)CC2)cc(OC)c1OC` [Example 128] fall in the same range of IC50: 100 to 1000 nM for the first, 100 to 1000 nM for the second.

Compared with `Cc1cc(CC(NC(=O)N2CCC(N3Cc4ccccc4NC3=O)CC2)C(=O)OC2CCC(c3ccccc3)CC2)cc2cn[nH]c12` (stereo not drawn) [Example 41d, 3-(7-Methyl-1H-indazol-5-yl)-2-{[4-(2-oxo-1,4-dihydro-2H-quinazolin-3-yl)-piperidine-1-carbonyl]-amino}-propionic acid 4-phenyl-cyclohexyl ester], `Cc1cc(CC(NC(=O)N2CCC(N3Cc4ccccc4NC3=O)CC2)C(=O)OC2CCN(Cc3ccccc3)CC2)cc2cn[nH]c12` (stereo not drawn) [Example 41b, 3-(7-Methyl-1H-indazol-5-yl)-2-{[4-(2-oxo-1,4-dihydro-2H-quinazolin-3-yl)-piperidine-1-carbonyl]-amino}-propionic acid 1-benzyl-piperidin-4-yl ester] is lower in IC50: 10 to 100 nM for the first, under 10 nM for the second.

First: CCCCN1CCN(C(=O)C(Cc2ccc3[nH]ncc3c2)NC(=O)N2CCC(N3Cc4ccccc4NC3=O)CC2)CC1 (stereo not drawn) [Example 40c]
Second: CCC(CN1CCN(C(=O)C(Cc2ccc3[nH]ncc3c2)NC(=O)N2CCC(N3Cc4ccccc4NC3=O)CC2)CC1)C(C)C (stereo not drawn) [Example 40i]
The IC50 of the first is higher: over 1000 nM for the first, 10 to 100 nM for the second. The second is the more potent here.

`O=C(C[C@H](Nc1ccc2[nH]ncc2c1)C(=O)N1CCC(N2CCCCC2)CC1)N1CCC(N2Cc3ccccc3NC2=O)CC1` (racemic) [Example 201, (±)-1-[1,4′]Bipiperidinyl-1′-yl-2-(1H-indazol-5-ylamino)-4-[4-(2-oxo-1,4-dihydro-2H-quinazolin-3-yl)-piperidin-1-yl]-butane-1,4-dione] and `Cc1cccc(CN[C@@H](CC(=O)N2CCC(N3Cc4ccccc4NC3=O)CC2)C(=O)N2CCC(N3CCCCC3)CC2)c1` [Example 95, (L)-1-[1,4′]Bipiperidinyl-1′-yl-2-((3′-methyl-phenyll)-methyl-amino)-4-[4-(2-oxo-1,4-dihydro-2H-quinazolin-3-yl)-piperidin-1-yl]-butane-1,4-dione] fall in the same range of IC50: 100 to 1000 nM for the first, 100 to 1000 nM for the second.

First: Cc1cccc(NC(=O)N[C@@H](CC(=O)N2CCC(N3Cc4ccccc4NC3=O)CC2)C(=O)N2CCC(N3CCCCC3)CC2)c1C [Example 151]
Second: O=C(Nc1cccc(Cl)c1)N[C@@H](CC(=O)N1CCC(N2Cc3ccccc3NC2=O)CC1)C(=O)N1CCC(N2CCCCC2)CC1 [Example 178]
The IC50 of the first is higher: 100 to 1000 nM for the first, 10 to 100 nM for the second.

First: COc1cccc(NC(=O)N[C@@H](CC(=O)N2CCC(N3Cc4ccccc4NC3=O)CC2)C(=O)N2CCC(N3CCCCC3)CC2)c1 [Example 150]
Second: CCc1cccc(NC(=O)N[C@@H](CC(=O)N2CCC(N3Cc4ccccc4NC3=O)CC2)C(=O)N2CCC(N3CCCCC3)CC2)c1 [Example 142]
The IC50 of the first is lower: 10 to 100 nM for the first, 100 to 1000 nM for the second.

`CC(C)c1ccc(NC(=O)N[C@@H](CC(=O)N2CCC(N3Cc4ccccc4NC3=O)CC2)C(=O)N2CCC(N3CCCCC3)CC2)cc1` [Example 162] and `CCOc1ccc(NC(=O)N[C@@H](CC(=O)N2CCC(N3Cc4ccccc4NC3=O)CC2)C(=O)N2CCC(N3CCCCC3)CC2)cc1` [Example 189] fall in the same range of IC50: 100 to 1000 nM for the first, 100 to 1000 nM for the second.

First: Cc1nc(N[C@@H](CC(=O)N2CCC(N3Cc4ccccc4NC3=O)CC2)C(=O)N2CCC(N3CCCCC3)CC2)nc(N)c1N [Example 91, (L)-1-[1,4′]Bipiperidinyl-1′-yl-2-(4,5-diamino-6-methyl-pyrimidin-2-ylamino)-4-[4-(2-oxo-1,4-dihydro-2H-quinazolin-3-yl)-piperidin-1-yl]-butane-1,4-dione]
Second: Cc1nc(N[C@@H](CC(=O)N2CCC(N3Cc4ccccc4NC3=O)CC2)C(=O)N2CCC(N3CCCCC3)CC2)nc(N)c1[N+](=O)[O-] [Example 90, (L)-2-(4-Amino-6-methyl-5-nitro-pyrimidin-2-ylamino)-1-[1,4′]bipiperidinyl-1′-yl-4-[4-(2-oxo-1,4-dihydro-2H-quinazolin-3-yl)-piperidin-1-yl]-butane-1,4-dione]
The IC50 of the first is higher: 100 to 1000 nM for the first, 10 to 100 nM for the second. The second is the more potent here.

First: O=C(Nc1ccc(F)c(Cl)c1)N[C@@H](CC(=O)N1CCC(N2Cc3ccccc3NC2=O)CC1)C(=O)N1CCC(N2CCCCC2)CC1 [Example 193]
Second: CC(=O)c1cccc(NC(=O)N[C@@H](CC(=O)N2CCC(N3Cc4ccccc4NC3=O)CC2)C(=O)N2CCC(N3CCCCC3)CC2)c1 [Example 147]
The IC50 of the first is lower: 10 to 100 nM for the first, 100 to 1000 nM for the second.

`Cc1cc(CC(NC(=O)N2CCC3(CC2)CC(=O)Nc2ccccc23)C(=O)N2CCCCC2)cc2cn[nH]c12` (racemic) [Example 32, (±)-1-(7-Methyl-1H-indazol-5-ylmethyl)-2-[1-piperidinyl]-2-oxoethyl]3′,4′-dihydro-2′-oxospiro-[piperidine-4,4′-(1H)-quinoline]-1-carboxamide] and `COC(=O)C(Cc1cc(C)c2[nH]ncc2c1)NC(=O)N1CCC2(CC1)NC(=O)Nc1ccccc12` (stereo not drawn) [Example 13, 3-(7-Methyl-1H-indazol-5-yl)-2-[2′,3′-dihydro-2′-oxospiro-(piperidine-4,4′-(1H)-quinazoline)carbonylamino]-propionic acid methyl ester] fall in the same range of IC50: 100 to 1000 nM for the first, 100 to 1000 nM for the second.

`CCCNC(=O)N[C@@H](CC(=O)N1CCC(N2Cc3ccccc3NC2=O)CC1)C(=O)N1CCC(N2CCCCC2)CC1` [Example 183] and `O=C(NCCc1ccccc1)N[C@@H](CC(=O)N1CCC(N2Cc3ccccc3NC2=O)CC1)C(=O)N1CCC(N2CCCCC2)CC1` [Example 138] fall in the same range of IC50: 100 to 1000 nM for the first, 100 to 1000 nM for the second.

`O=C(COc1ccc(Cl)cc1)N[C@@H](CC(=O)N1CCC(N2Cc3ccccc3NC2=O)CC1)C(=O)N1CCC(N2CCCCC2)CC1` [Example 112] and `CCOC(=O)c1ccc(NC(=O)N[C@@H](CC(=O)N2CCC(N3Cc4ccccc4NC3=O)CC2)C(=O)N2CCC(N3CCCCC3)CC2)cc1` [Example 182] fall in the same range of IC50: 100 to 1000 nM for the first, 100 to 1000 nM for the second.

`Cc1cc(CC(NC(=O)N2CCC3(CC2)OC(=O)Nc2ccccc23)C(=O)NC2C3CC4CC(C3)CC2C4)cc2cn[nH]c12` (racemic) [Example 28, (±)-[1-(2-adamantyl-carbamoyl)-2-(7-methyl-1H-indazol-5-yl)-ethyl]-1′,2′-dihydro-2′-oxospiro-[4H-3′,1-benzoxazine-4,4′-piperidine]-1-carboxamide] showed an IC50 of 100 to 1000 nM.

— patent publication US7842808B2, “Anti-migraine spirocycles” (Bristol-Myers Squibb Company, priority 2002, dated 2010)
